Results reported in the supplement of paper PMC11451515.

Tests used:
Settings in all cases: 48 h
NOMO1 [1] = experiment: AUC of viability dose-response curve (% viability x log10 dose units); higher = less sensitive
Method in brief: (§1)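 Leukemia cells adapted to each medium were seeded in 1536-well plates (500 or 1000 cells/well). They were dosed with library compounds in DMSO at 11 threefold doses, 47 μM to 0.79 nM, for 48 h at 37°C. CellTiter-Glo One luminescence was normalised per plate to DMSO and cell-free wells. Area under the curve was integrated by trapezoidal rule over log10 doses on a four-parameter log-logistic fit; curves exceeding full viability were scaled and curves failing quality control removed.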

P12-Ichikawa [2] = experiment: as above
Method in brief: as §1

SEM cells [3] = experiment: as above
Method in brief: as §1

P12-Ichikawa [4] = experiment: cell viability relative to DMSO control; higher = less cytotoxic
Method in brief: (§2)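 Cells were incubated for 48 h at 37°C before CellTiter-Glo One luminescence was read. The cells were NOMO1 or SEM (500 cells/well) or P12-Ichikawa (1000 cells/well) leukemia cells, adapted for at least four passages in each medium and seeded in 1536-well plates (5 μl). Dosing used library compounds in DMSO applied by pin over 11 threefold points, 47 μM to 0.79 nM. Viability is the per-plate percentage of DMSO wells, with cell-free wells as background.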

SEM cells [5] = experiment: as above
Method in brief: as §2

NOMO1 [6] = experiment: as above
Method in brief: as §2

COc1cc(C)c(/C=C/C(C)=C/C=C/C(C)=C/C(=O)O)c(C)c1C
AUC of viability dose-response curve
Settings	NOMO1 [1]	P12-Ichikawa [2]	SEM cells [3]
HPLM + 10% dialyzed FBS	442	458	450
RPMI 5 mM glucose + 10% FBS	441	441	426
RPMI 5 mM glucose + 10% dialyzed FBS	420	455	450

CN1CCc2c(n(Cc3ccc(C(=O)NO)cc3)c3ccccc23)C1
AUC of viability dose-response curve
Settings	NOMO1 [1]	P12-Ichikawa [2]	SEM cells [3]
HPLM + 10% dialyzed FBS	452	448	443
RPMI 5 mM glucose + 10% FBS	440	453	442
RPMI 5 mM glucose + 10% dialyzed FBS	449	451	452

COc1cc2nc(N3CCN(C(=O)C4COc5ccccc5O4)CC3)nc(N)c2cc1OC (stereo unspecified)
cell viability [%], HPLM + 10% dialyzed FBS
Settings	P12-Ichikawa [4]	SEM cells [5]
0.000781 µM	122	123
0.00234 µM	125	125
0.00702 µM	137	115
0.0211 µM	127	126
0.0632 µM	129	122
0.19 µM	132	128
0.569 µM	132	113
1.71 µM	131	132
5.12 µM	115	120
15.4 µM	112	119
46.1 µM	82.3	91.4

AUC of viability dose-response curve
Settings	NOMO1 [1]	P12-Ichikawa [2]	SEM cells [3]
HPLM + 10% dialyzed FBS	439	457	469
RPMI 5 mM glucose + 10% FBS	452	461	450
RPMI 5 mM glucose + 10% dialyzed FBS	456	467	447

OC1=CC=C(C=C1)C/2=C/C3=C(OC2)C=C(O)C=C3
cell viability [%]
Settings	NOMO1 [6]	P12-Ichikawa [4]	SEM cells [5]
HPLM + 10% dialyzed FBS, 0.000781 µM	118	109	107
HPLM + 10% dialyzed FBS, 0.00234 µM	123	91.7	111
HPLM + 10% dialyzed FBS, 0.00702 µM	114	111	112
HPLM + 10% dialyzed FBS, 0.0211 µM	111	117	109
HPLM + 10% dialyzed FBS, 0.0632 µM	118	109	114
HPLM + 10% dialyzed FBS, 0.19 µM	111	116	120
HPLM + 10% dialyzed FBS, 0.569 µM	100	104	101
HPLM + 10% dialyzed FBS, 1.71 µM	82.8	80.2	84.9
HPLM + 10% dialyzed FBS, 5.12 µM	60.9	19.8	21.2
HPLM + 10% dialyzed FBS, 15.4 µM	26.3	2.76	2.3
HPLM + 10% dialyzed FBS, 46.1 µM	5.22	1.12	1.5
RPMI 5 mM glucose + 10% FBS, 0.000781 µM	97.2	108	108
RPMI 5 mM glucose + 10% FBS, 0.00234 µM	108	121	117
RPMI 5 mM glucose + 10% FBS, 0.00702 µM	117	123	122
RPMI 5 mM glucose + 10% FBS, 0.0211 µM	99.8	110	115
RPMI 5 mM glucose + 10% FBS, 0.0632 µM	108	126	109
RPMI 5 mM glucose + 10% FBS, 0.19 µM	108	111	106
RPMI 5 mM glucose + 10% FBS, 0.569 µM	104	107	80.8
RPMI 5 mM glucose + 10% FBS, 1.71 µM	93.3	88.2	93.1
RPMI 5 mM glucose + 10% FBS, 5.12 µM	89.4	24.3	23.7
RPMI 5 mM glucose + 10% FBS, 15.4 µM	23.9	1.45	1.46
RPMI 5 mM glucose + 10% FBS, 46.1 µM	9.27	-0.00081	1.13
RPMI 5 mM glucose + 10% dialyzed FBS, 0.000781 µM	108	102	111
RPMI 5 mM glucose + 10% dialyzed FBS, 0.00234 µM	118	112	107
RPMI 5 mM glucose + 10% dialyzed FBS, 0.00702 µM	110	111	125
RPMI 5 mM glucose + 10% dialyzed FBS, 0.0211 µM	109	113	90.8
RPMI 5 mM glucose + 10% dialyzed FBS, 0.0632 µM	101	111	99.1
RPMI 5 mM glucose + 10% dialyzed FBS, 0.19 µM	105	106	108
RPMI 5 mM glucose + 10% dialyzed FBS, 0.569 µM	111	102	85.5
RPMI 5 mM glucose + 10% dialyzed FBS, 1.71 µM	106	74.9	89.1
RPMI 5 mM glucose + 10% dialyzed FBS, 5.12 µM	96.8	16.2	25
RPMI 5 mM glucose + 10% dialyzed FBS, 15.4 µM	33.1	2.96	2.21
RPMI 5 mM glucose + 10% dialyzed FBS, 46.1 µM	14.9	0.54	1.74

AUC of viability dose-response curve
Settings	NOMO1 [1]	P12-Ichikawa [2]	SEM cells [3]
HPLM + 10% dialyzed FBS	368	354	355
RPMI 5 mM glucose + 10% FBS	411	356	358
RPMI 5 mM glucose + 10% dialyzed FBS	418	349	362

CC1(COc2ccc3c(c2)ncn3-c2ccc3cccc(N4CCC(N)CC4)c3n2)COC1
cell viability [%], SEM cells [5]
Settings	HPLM + 10% dialyzed FBS	RPMI 5 mM glucose + 10% FBS	RPMI 5 mM glucose + 10% dialyzed FBS
0.000781 µM	91.2	114	99.8
0.00234 µM	96.7	101	99.7
0.00702 µM	81.3	94	73.6
0.0211 µM	62.7	64.9	59.6
0.0632 µM	38.9	28.8	33.8
0.19 µM	56.3	49.8	51.1
0.569 µM	54.4	49.5	47.4
1.71 µM	44.1	40.5	48.2
5.12 µM	26.4	18.1	20
15.4 µM	28.7	16.4	20.2
46.1 µM	6.33	5.26	6.44

AUC of viability dose-response curve
Settings	HPLM + 10% dialyzed FBS	RPMI 5 mM glucose + 10% FBS	RPMI 5 mM glucose + 10% dialyzed FBS
P12-Ichikawa [2]	392	403	418
SEM cells [3]	254	216	240

Cc1c(CN2CCN([S+](C)(=O)[O-])CC2)sc2c(N3CCOCC3)nc(-c3cnc(N)nc3)nc12
SEM cells [5], RPMI 5 mM glucose + 10% dialyzed FBS
Settings	cell viability [%]
0.000781 µM	118
0.00234 µM	134
0.00702 µM	122
0.0211 µM	105
0.0632 µM	87.3
0.19 µM	86.6
0.569 µM	98.8
1.71 µM	57.9
5.12 µM	50.8
15.4 µM	50.6
46.1 µM	44

AUC of viability dose-response curve
Settings	NOMO1 [1]	P12-Ichikawa [2]	SEM cells [3]
HPLM + 10% dialyzed FBS	305	371	287
RPMI 5 mM glucose + 10% FBS	350	336	304
RPMI 5 mM glucose + 10% dialyzed FBS	316	332	328

CCn1c(=O)c2c(nc(/C=C/c3ccc(OC)c(OC)c3)n2C)n(CC)c1=O
AUC of viability dose-response curve
Settings	NOMO1 [1]	P12-Ichikawa [2]	SEM cells [3]
HPLM + 10% dialyzed FBS	425	467	470
RPMI 5 mM glucose + 10% FBS	424	451	463
RPMI 5 mM glucose + 10% dialyzed FBS	436	464	472

O=C1N(c2ccccc2)c2ccccc2C1(Cc1ccncc1)Cc1ccncc1
SEM cells [5], RPMI 5 mM glucose + 10% FBS
Settings	cell viability [%]
0.000781 µM	84.9
0.00234 µM	115
0.00702 µM	133
0.0211 µM	148
0.0632 µM	129
0.19 µM	43.9
0.569 µM	137
1.71 µM	94.4
5.12 µM	88.3
15.4 µM	108
46.1 µM	152

AUC of viability dose-response curve
Settings	HPLM + 10% dialyzed FBS	RPMI 5 mM glucose + 10% FBS	RPMI 5 mM glucose + 10% dialyzed FBS
NOMO1 [1]	462	473	465
P12-Ichikawa [2]	446	437	424

Cc1cc(NC(=O)Nc2ccc(N(C)C)cc2)c2cc(F)cc(F)c2n1
AUC of viability dose-response curve
Settings	NOMO1 [1]	P12-Ichikawa [2]	SEM cells [3]
HPLM + 10% dialyzed FBS	457	475	465
RPMI 5 mM glucose + 10% FBS	466	461	468
RPMI 5 mM glucose + 10% dialyzed FBS	440	454	448
